In ChEMBL document CHEMBL1201862, “PubChem BioAssay data set” (2004):
Active and inactive are the calls of the source. Rule as the data show it: actives have a measured IC50 and inactives only a lower limit.

Target: Envelope glycoprotein gp160 (Human immunodeficiency virus 1, UniProt Q6QLK5)
Assay: inhibitors of HIV fusion peptide binding, primary screen, biochemical, uHTS, fluorescence dequenching (AID 1986)

Chain of Envelope glycoprotein gp160 (Q6QLK5 whole entry, the tested form may be a part): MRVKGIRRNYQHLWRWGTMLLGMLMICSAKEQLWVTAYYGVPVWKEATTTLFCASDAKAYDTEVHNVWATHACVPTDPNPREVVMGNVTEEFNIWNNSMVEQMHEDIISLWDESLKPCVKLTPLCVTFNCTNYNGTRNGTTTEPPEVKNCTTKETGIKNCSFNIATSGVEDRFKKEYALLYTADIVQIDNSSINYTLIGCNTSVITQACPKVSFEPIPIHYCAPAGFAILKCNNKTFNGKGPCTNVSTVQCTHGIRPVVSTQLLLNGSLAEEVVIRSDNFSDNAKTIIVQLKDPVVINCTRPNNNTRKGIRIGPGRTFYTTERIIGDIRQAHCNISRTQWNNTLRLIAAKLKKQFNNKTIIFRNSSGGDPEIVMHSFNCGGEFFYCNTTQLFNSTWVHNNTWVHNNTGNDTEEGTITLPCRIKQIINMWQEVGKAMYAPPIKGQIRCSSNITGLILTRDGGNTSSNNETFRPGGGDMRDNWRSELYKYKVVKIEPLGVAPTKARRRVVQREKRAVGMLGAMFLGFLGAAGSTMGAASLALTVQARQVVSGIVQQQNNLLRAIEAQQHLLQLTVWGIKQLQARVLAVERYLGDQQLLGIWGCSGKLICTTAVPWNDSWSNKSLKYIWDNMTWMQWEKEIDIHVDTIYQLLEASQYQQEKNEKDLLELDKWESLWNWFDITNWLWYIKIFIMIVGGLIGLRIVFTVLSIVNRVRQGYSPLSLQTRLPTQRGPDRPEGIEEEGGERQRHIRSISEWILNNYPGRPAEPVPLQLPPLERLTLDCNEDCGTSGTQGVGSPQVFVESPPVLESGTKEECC

Cc1[nH]n(-c2ccccc2)c(=O)c1/C=C1/C(=O)NN(c2ccc(F)c(Cl)c2)C1=O
IC50: 12.1 µM (active)
